# Results reported in ChEMBL document CHEMBL4033678, “A fragment-based approach leading to the discovery of a novel binding site and the selective CK2 inhibitor CAM4066” (Bioorg Med Chem, 2017).
# Calls of active or inactive are those of the source. The rule behind the calls is not given here.
# Target: Casein kinase II subunit alpha (Homo sapiens) (UniProt P68400)
# Sequence (P68400 whole entry, looked up): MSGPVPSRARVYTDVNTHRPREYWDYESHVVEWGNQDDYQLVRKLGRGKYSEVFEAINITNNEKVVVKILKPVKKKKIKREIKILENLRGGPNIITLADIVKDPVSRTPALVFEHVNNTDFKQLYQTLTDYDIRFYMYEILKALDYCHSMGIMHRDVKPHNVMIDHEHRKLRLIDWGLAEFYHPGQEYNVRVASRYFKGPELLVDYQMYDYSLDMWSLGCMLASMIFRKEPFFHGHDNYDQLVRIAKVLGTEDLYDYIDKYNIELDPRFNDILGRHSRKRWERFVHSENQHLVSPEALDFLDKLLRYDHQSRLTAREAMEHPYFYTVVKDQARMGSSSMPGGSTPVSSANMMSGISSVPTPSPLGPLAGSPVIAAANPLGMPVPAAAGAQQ
Compound,ΔTm,deltaTm
O=C(O)c1cc2cc(F)ccc2[nH]1,4.1 °C,
O=C(O)C(=O)Cc1ccccc1,-0.6 °C,
Cc1cc(C(=O)O)ccc1N,0.5 °C,
O=C(O)c1ccc[nH]c1=O,-1.8 °C,
O=C(O)c1cc2cc(O)ccc2[nH]1,,inactive
OC1CCC(N2CCNCC2)CC1 (stereo not drawn),0.8 °C,
Nc1cccc(C(=O)O)c1,0 °C,
COc1cc(CC(=O)O)ccc1O,,inactive
O=C(O)c1ccc(O)c(O)c1,2.4 °C,
O=C(O)Cc1ccc(Cl)c(Cl)c1,0.7 °C,
NNc1ccc(C(=O)O)cc1,3.8 °C,
O=C(O)c1ccc(O)cc1O,3.2 °C,
Cc1ccc(O)c(C(=O)O)c1,4.1 °C,
CCCCOC(=O)N1CCC(N)CC1,0.3 °C,
O=C(O)CCc1ccc(O)cc1,3.1 °C,
NC(=O)c1ccc(O)cc1,,inactive
O=C(O)c1ccc2ccccc2n1,,inactive
O=c1cc(O)c2ccccc2o1,3.8 °C,
O=C(O)c1ccc2cc[nH]c2c1,3 °C,
O=C(O)c1cccc(C(=O)O)n1,-0.5 °C,
O=C(O)Cc1cc(=O)oc2ccccc12,,inactive
Nc1cc(Br)cnc1N,,inactive
O=C(O)c1cc(=O)c2ccccc2o1,,inactive
